From patent US20100035865A1, “Sulfonamides and Pharmaceutical Compositions Thereof” (PFIZER INC, priority 2007, published 2010)
Values joined by “and” are separate entries in the source; they are usually repeats but may differ in a detail not shown here. Equal entries are not always repeated. Where two headings read alike, the source gives them in different places.

Columns and labels:
[1] = system: AMPA receptors; assay: AMPA ES Cell FLIPR Screen, G7330A (single dose % effect); type: cell-based, murine; details: Dose 32.0 uM; mean (range and n in cells below); ES cell-derived neurons, 32 uM AMPA challenge; negative control AMPA alone, positive control AMPA plus cyclothiazide
Method: (§1) The murine ES cell line used was E14-Sx1-16C, which has a targeted mutation in the Sox1 gene, a neuroectodermal marker, that offers G418 resistance when the Sox1 gene is expressed (Stem Cell Sciences). ES cells were maintained undifferentiated as previously described (Roach). […] ES cells were plated on gelatin-coated dishes (BD Biosciences), the media was changed daily and the cells were dissociated with 0.05% Trypsin EDTA (Invitrogen) every other day.
(§2) Embryoid Body Formation: Prior to embryoid body (EB) formation the ES cells were weaned from FBS onto Knockout Serum Replacement (KSR) (Invitrogen). To form EBs, ES cells were dissociated into a single cell suspension then 3×10^6 cells were plated in bacteriology dishes (Nunc 4014) and grown as a suspension culture in NeuroEB-I medium that consisted of Knockout™ D-MEM (Invitrogen), supplemented with 10% KSR (Invitrogen), 0.2 mM L-Glutamine (Invitrogen), 0.1 mM MEM non-essential amino acids (Invitrogen), 30 μg/ml Gentamicin (Invitrogen), 1000 u/ml ESGRO (Chemicon), 0.1 mM 2-Mercaptoethanl (Sigma) and 150 ng/ml Transferrin (Invitrogen). The plates were put on a Stovall Belly Button shaker in an atmospheric oxygen incubator. The media was changed on day 2 of EB formation with NeuroEB-I and on day 4 with NeuroEB-II (NeuroEB-I plus 1 μg/ml mNoggin [R&D Systems]).
(§3) Neuronal Precursor Selection and Expansion: On day 5 of EB formation, EBs were dissociated with 0.05% Trypsin EDTA, and 4×10^6 cells/100 mm dish were plated on Laminin coated tissue culture dishes in NeuroII-G418 medium that consisted of a base medium of a 1:1 mixture of D-MEM/F12 supplemented with N2 supplements and NeuroBasal Medium supplemented with B27 supplement and 0.1 mM L-Glutamine (all from Invitrogen). The base medium was then supplemented with 10 ng/ml bFGF (Invitrogen), 1 μg/ml mNoggin, 500 ng/ml SHH-N, 100 ng/ml FGF-8b (R&D Systems), 1 μg/ml Laminin and 200 μg/ml G418 (Invitrogen) for selection of neuronal precursors expressing Sox-1. The plates were put in an incubator that contained 2% Oxygen and were maintained in these conditions. During the 6-day selection period, the NeuroII media was changed daily. On day 6, the surviving neuronal precursor foci were dissociated with 0.05% Trypsin EDTA and the cells were plated at a density of 1.5×10^6 cells/100 mm Laminin coated dish in NeuroII-G418 medium. The cells were dissociated every other day for expansion, and prepared for Cryopreservation at passage 3 or 4. The cryopreservation medium contained 50% KSR, 10% Dimethyl Sulfoxide (DMSO) (Sigma) and 40% NeuroI-G418I medium. Neuronas precursors were crypreserved at a concentration of 4×10^6cells/ml and 1 ml/cryovial in a controlled rate freezer overnight then transferred to an ultra-low freezer or liquid nitrogen for long-term storage,
(§4) Neuronal Differentiation: Cryopreserved ES cell-derived neuronal precursors were thawed by the rapid thaw method in a 37-degree water-bath. The cells were transferred from the cryovial to a 100 mm Laminin coated tissue culture dish that already contained NeuroII-G418 that had been equilibrated in a 2% Oxygen incubator. The media was changed with fresh NeuroII-G418 the next day. The cells were dissociated every other day as described above for expansion to generate enough cells to plate for the screen. For the screen, the cells were plated into 384-well poly-d-lysine coated tissue culture dishes (BD Biosciences) by the automated SelecT at a cell density of 6K cells/well in differentiation medium NeuroIII that contained a 4:1 ratio of the NeuroBasalMedium/B27:D-MEM/F12/N2 supplemented with 1 μM cAMP (Sigma), 200 μM Ascorbic Acid (Sigma), 1 μg/ml Laminin (Invitrogen) and 10 ng/ml BDNF (R&D Systems). The plates were put in an incubator with 2% Oxygen and allowed to complete the differentiation process for 7 days. The cells could then be used over a 5-day period for the high throughput screen.
(§5) Procedure for AMPA ES Cell FLIPR Screen […]

[2] = system: AMPA receptors; assay: AMPA ES Cell FLIPR Screen, G7330B (EC50 and % effect); type: cell-based, murine; details: for EC50: ES cell-derived neurons, 32 uM AMPA challenge
Method: as §1, §2, §3, §4, §5

[3] = Dose 32.0 uM, individual determinations

Compound: O=S(=O)(NC1CNCCC1c1ccc(-c2ccccc2)cc1)C1CC1 (stereo not drawn) [Example 14, Cyclopropanesulfonic acid(trans-4-biphenyl-4-yl-piperidin-3-yl)-amide]
- G7330A: % Effect [1]: 3.36%
- G7330B (U): % Effect [2, 3]: 4.61% and 2.97% and 3.26% and 0.0952% and 0.150% and 1.02%
- EC50 ([2]; individual determinations, read-out: G7330B (U): EC50): > 32 µM
- EC50 ([2]; mean of individual determinations (range and n in cells below), read-out: G7330B mean EC50): > 32 µM

Compound: CCCS(=O)(=O)N[C@@H]1CNCC[C@@H]1c1ccc(-c2ccccc2)cc1 (relative stereo) [Example 12, Propane-1-sulfonic acid(cis-4-biphenyl-4-yl-piperidin-3-yl)-amide]
- G7330A: % Effect [1]: 0.110%
- G7330B (U): % Effect [2, 3]: 0.428% and −0.204% and −0.02059% and 0.243%

Compound: CC(C)S(=O)(=O)N[C@@H]1CN(C)CC[C@@H]1c1ccc(-c2ccccc2)cc1 (relative stereo) [Example 7, propane-2-sulfonic acid (cis-4-biphenyl-4-yl-1-methyl-piperidin-3-yl)-amide]
- G7330A: % Effect [1]: −0.867%
- G7330B (U): % Effect ([2]; Dose 31.6 uM, individual determinations): −0.0209% and −0.612% and −1.41% and −1.42%
